Where two headings read alike, the source gives them in different places.
What was measured:
TNFα = test: Cot Monocyte TNFα Cell Based Assay
Human Cot = Human Cot (Homo sapiens (Human), UniProt P41279); test: High Throughput Cot Biochemical Assay
[1] = Homo sapiens, Monocyte, read-out: EC50 TNF, LPS-stimulated human monocytes, TNFα
[2] = IC50 HTRF, Cot HTRF (TR-FRET) biochemical assay
[3] = read-out: EC50 TNF, LPS-stimulated human monocytes, TNFα
[4] = read-out: IC50 HTRF, Cot HTRF (TR-FRET) biochemical assay
[5] = Homo sapiens, Monocyte, read-out: EC50 TNF, LPS-stimulated human monocytes, TNFα TR-FRET
[6] = IC50 HTRF, Cot HTRF (TR-FRET KinEASE) biochemical assay, 400 μM ATP

Sequence of Human Cot (P41279 30-397): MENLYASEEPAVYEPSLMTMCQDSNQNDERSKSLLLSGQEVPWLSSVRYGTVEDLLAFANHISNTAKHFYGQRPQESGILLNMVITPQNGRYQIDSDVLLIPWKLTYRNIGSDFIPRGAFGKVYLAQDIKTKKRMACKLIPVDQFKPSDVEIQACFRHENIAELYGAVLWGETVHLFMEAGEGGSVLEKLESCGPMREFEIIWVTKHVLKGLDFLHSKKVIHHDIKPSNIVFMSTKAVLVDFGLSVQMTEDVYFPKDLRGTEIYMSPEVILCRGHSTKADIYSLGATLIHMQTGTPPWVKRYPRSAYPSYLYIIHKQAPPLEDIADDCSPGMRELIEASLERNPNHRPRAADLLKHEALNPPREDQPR

| EC50 (TNFα; [1]) | IC50 (Human Cot; [2]) | SMILES | further results |
| --- | --- | --- | --- |
| 187 nM | 17 nM | CC(C)(C)CNc1c(C#N)cnc2c(Cl)cc(N[C@H](c3cn(C4(C(F)(F)F)CC4)nn3)c3ccc(Cl)c4ncccc34)cc12 [Example 709, (S)-8-chloro-6-(((8-chloroquinolin-5-yl)(1-(1-(trifluoromethyl)cyclopropyl)-1H-1,2,3-triazol-4-yl)methyl)amino)-4-(neopentylamino)quinoline-3-carbonitrile] | – |
| 528 nM | 8 nM | CC(C)(C)CNc1c(C#N)cnc2c(Cl)cc(N[C@@H](c3cccnc3)c3cn(C4(C(F)F)CC4)nn3)cc12 [Example 506, (S)-8-chloro-6-(((1-(1-(difluoromethyl)-cyclopropyl)-1H-1,2,3-triazol-4-yl)(pyridin-3-yl)methyl)amino)-4-(neopentylamino)quinoline-3-carbonitrile] | – |
| 26 nM | 2 nM | Cc1nc(F)ccc1[C@H](Nc1cc(C#N)c2ncc(C#N)c(NCC(C)(C)C)c2c1)c1cn(C2(C(F)F)CC2)nn1 [Example 473, (S)-6-(((1-(1-(difluoromethyl)cyclopropyl)-1H-1,2,3-triazol-4-yl)(6-fluoro-2-methylpyridin-3-yl)methyl)amino)-4-(neopentylamino)quinoline-3,8-dicarbonitrile] | – |
| 779 nM | 11 nM | Cc1c([C@H](Nc2cc(Cl)c3ncc(C#N)c(NCC(C)(C)C)c3c2)c2cn(C3(C(F)F)CC3)nn2)ccc(=O)n1C [Example 732, (S)-8-chloro-6-(((1-(1-(difluoromethyl)cyclopropyl)-1H-1,2,3-triazol-4-yl)(1,2-dimethyl-6-oxo-1,6-dihydropyridin-3-yl)methyl)amino)-4-(neopentylamino)quinoline-3-carbonitrile] | – |
| 176 nM | 6 nM | CC(C)(C)CNc1c(C#N)cnc2c(C#N)cc(N[C@@H](c3ccc4cccnc4c3)c3cn(C4(C(F)F)CC4)nn3)cc12 [Example 708, (S)-6-(((1-(1-(difluoromethyl)cyclopropyl)-1H-1,2,3-triazol-4-yl)(quinolin-7-yl)methyl)amino)-4-(neopentylamino)quinoline-3,8-dicarbonitrile] | – |
| 559 nM | 1 nM | CC(C)(C)CNc1c(C#N)cnc2c(C#N)cc(N[C@H](c3cn(C4(C(N)=O)CC4)nn3)c3cccc4ncsc34)cc12 [Example 409, (S)-1-(4-(benzo[d]thiazol-7-yl((3,8-dicyano-4-(neopentylamino)quinolin-6-yl)amino)methyl)-1H-1,2,3-triazol-1-yl)cyclopropane-1-carboxamide] | – |
| 22 nM | 2 nM | CC(C)(C)CNc1c(C#N)cnc2c(C#N)cc(N[C@H](c3cn(C4(C5CC5)CC4)nn3)c3cccc4cnccc34)cc12 [Example 703, (S)-6-(((1-([1,1′-bi(cyclopropan)]-1-yl)-1H-1,2,3-triazol-4-yl)(isoquinolin-5-yl)methyl)amino)-4-(neopentylamino)quinoline-3,8-dicarbonitrile] | – |
| 63 nM | 2 nM | CC(C)(C)CNc1c(C#N)cnc2c(Cl)cc(N[C@H](c3cn(C4(C#N)CC4)nn3)c3cccc4cnccc34)cc12 [Example 563, (S)-8-chloro-6-(((1-(1-cyanocyclopropyl)-1H-1,2,3-triazol-4-yl)(isoquinolin-5-yl)methyl)amino)-4-(neopentylamino)-quinoline-3-carbonitrile] | – |

The next lines start with the molecule.

| SMILES | EC50 (TNFα; [1]) | IC50 (Human Cot; [2]) | further results |
| --- | --- | --- | --- |
| [2H][C@](Nc1cc(Cl)c2ncc(C#N)c(Nc3ccc(OC)c(Cl)c3)c2c1)(c1ccc(F)nc1)c1cn(C2CC2)nn1 [Example 96, (S)-8-chloro-4-((3-chloro-4-methoxyphenyl)amino)-6-(((1-cyclopropyl-1H-1,2,3-triazol-4-yl)(6-fluoropyridin-3-yl)methyl-d)amino)quinoline-3-carbonitrile] | 173 nM | 11 nM | – |
| C[C@@H](CF)n1cc([C@@H](Nc2cc(Cl)c3ncc(C#N)c(NCC(C)(C)C(F)(F)F)c3c2)c2cccc3c(=O)n(C)ccc23)nn1 [Example 784, 8-chloro-6-(((S)-(1-((S)-1-fluoropropan-2-yl)-1H-1,2,3-triazol-4-yl)(2-methyl-1-oxo-1,2-dihydroiso-quinolin-5-yl)methyl)amino)-4-((3,3,3-trifluoro-2,2-dimethylpropyl)amino)quinoline-3-carbonitrile] | – | – | EC50 (TNFα; [3]): 51 nM; IC50 (Human Cot; [4]): 3 nM |
| CC(C)(C)CNc1c(C#N)cnc2c(C#N)cc(N[C@H](c3cn(C4(C(F)F)CC4)nn3)c3ccc(F)c4ncccc34)cc12 [Example 671] | – | – | EC50 (TNFα; [3]): 32 nM; IC50 (Human Cot; [4]): 2 nM |
| CC(C)(CNc1c(C#N)cnc2c(Cl)cc(N[C@H](c3cn(C4(C(F)F)CC4)nn3)c3cccc4ncccc34)cc12)C(F)(F)F [Example 940, (S)-8-chloro-6-(((1-(1-(difluoromethyl)cyclopropyl)-1H-1,2,3-triazol-4-yl)(quinolin-5-yl)methyl)amino)-4-((3,3,3-trifluoro-2,2-dimethylpropyl)amino)quinoline-3-carbonitrile] | – | – | EC50 (TNFα; [5]): 86 nM; IC50 (Human Cot; [6]): 7 nM |
| Cc1ncsc1[C@H](Nc1cc(Cl)c2ncc(C#N)c(Nc3cccc(Cl)c3F)c2c1)c1cn(C(C)C)nn1 [Example 252, (R)-8-chloro-4-((3-chloro-2-fluorophenyl)amino)-6-(((1-isopropyl-1H-1,2,3-triazol-4-yl)(4-methylthiazol-5-yl)methyl)-amino)quinoline-3-carbonitrile] | 119 nM | 6 nM | – |
| CC(C)(C)N1CCC(n2cc([C@@H](Nc3cc(Cl)c4ncc(C#N)c(Nc5ccc(F)c(Cl)c5)c4c3)c3csc4ccccc34)nn2)CC1 [Example 351, (S)-6-((benzo[b]thiophen-3-yl(1-(1-(tert-butyl)piperidin-4-yl)-1H-1,2,3-triazol-4-yl)methyl)amino)-8-chloro-4-((3-chloro-4-fluorophenyl)amino)-quinoline-3-carbonitrile] | 744 nM | 10 nM | – |
| CC(C)(C)N1CCC(n2cc([C@@H](Nc3cc(Cl)c4ncc(C#N)c(Nc5ccc(F)c(Cl)c5)c4c3)c3cscn3)nn2)CC1 [Example 353, (S)-6-(((1-(1-(tert-butyl)piperidin-4-yl)-1H-1,2,3-triazol-4-yl)(thiazol-4-yl)methyl)amino)-8-chloro-4-((3-chloro-4-fluorophenyl)amino)-quinoline-3-carbonitrile] | 184 nM | 4 nM | – |
| N#Cc1cnc2c(Cl)cc(N[C@H](c3cn(C4COC4)nn3)c3cccnc3Cl)cc2c1Nc1ccc(F)c(Cl)c1 [Example 319, (S)-8-chloro-4-((3-chloro-4-fluorophenyl)amino)-6-(((2-chloropyridin-3-yl)(1-(oxetan-3-yl)-1H-1,2,3-triazol-4-yl)methyl)amino)-quinoline-3-carbonitrile] | 165 nM | 5 nM | – |
| CC(C)(C)CNc1c(C#N)cnc2c(Cl)cc(N[C@H](c3cn(C4(C5CC5)CC4)nn3)c3cccc4cnccc34)cc12 [Example 682, (S)-6-(((4-(1-(1-bi(cyclopropan)]-1-yl)-1H-1,2,3-triazol-4-yl)(isoquinolin-5-yl)methyl)amino)-8-chloro-4-(neopentylamino)quinoline-3-carbonitrile] | – | – | EC50 (TNFα; [3]): 66 nM; IC50 (Human Cot; [4]): 7 nM |
| N#CCn1cc([C@@H](Nc2cc(Cl)c3ncc(C#N)c(Nc4ccc(F)c(Cl)c4)c3c2)c2cscn2)nn1 [Example 364, (S)-8-chloro-4-((3-chloro-4-fluorophenyl)amino)-6-(((1-(cyanomethyl)-1H-1,2,3-triazol-4-yl)(thiazol-4-yl)methyl)amino)-quinoline-3-carbonitrile] | 241 nM | 7 nM | – |
| COCCn1cc([C@@H](Nc2cc(Cl)c3ncc(C#N)c(Nc4ccc(F)c(Cl)c4)c3c2)c2cscn2)nn1 [Example 358, (S)-8-chloro-4-((3-chloro-4-fluorophenyl)amino)-6-(((1-(2-methoxyethyl)-1H-1,2,3-triazol-4-yl)(thiazol-4-yl)methyl)amino)-quinoline-3-carbonitrile] | 130 nM | 3 nM | – |
| N#Cc1cnc2c(Cl)cc(N[C@H](c3cn(C4CCNCC4)nn3)c3cncs3)cc2c1Nc1ccc(F)c(Cl)c1 [Example 375, (R)-8-chloro-4-((3-chloro-4-fluorophenyl)amino)-6-(((1-(piperidin-4-yl)-1H-1,2,3-triazol-4-yl)(thiazol-5-yl)methyl)amino)quinoline-3-carbonitrile] | 1510 nM | 4 nM | – |
| Cc1nc(Cl)ccc1[C@H](Nc1cc(Cl)c2ncc(C#N)c(Nc3ccc(F)c(Cl)c3)c2c1)c1cn(CCO)nn1 [Example 328, (S)-8-chloro-6-(((6-chloro-2-methylpyridin-3-yl)(1-(2-hydroxyethyl)-1H-1,2,3-triazol-4-yl)methyl)amino)-4-((3-chloro-4-fluorophenyl)amino)-quinoline-3-carbonitrile] | 272 nM | 4 nM | – |
| Cc1nc(F)ccc1[C@H](Nc1cc(C#N)c2ncc(C#N)c(NCC(C)(C)C(F)(F)F)c2c1)c1cn(C2(C)CC2)nn1 [Example 846, (S)-6-(((6-fluoro-2-methylpyridin-3-yl)(1-(1-methylcyclopropyl)-1H-1,2,3-triazol-4-yl)methyl)amino)-4-((3,3,3-trifluoro-2,2-dimethylpropyl)amino)quinoline-3,8-dicarbonitrile] | – | – | EC50 (TNFα; [5]): 17 nM; IC50 (Human Cot; [6]): 2 nM |
| [2H]C([2H])([2H])C([2H])([2H])[C@@]([2H])(Nc1c(C#N)cnc2c(Cl)cc(N[C@@]([2H])(c3ccc(F)nc3)c3cn(C4CC4)nn3)cc12)c1ccccc1 [Example 109, 8-chloro-6-(((S)-(1-cyclopropyl-1H-1,2,3-triazol-4-yl)(6-fluoropyridin-3-yl)methyl-d)amino)-4-(((R)-1-phenylpropyl-1,2,2,3,3,3-d6)amino)quinoline-3-carbonitrile] | 54 nM | 2 nM | – |

Reference: patent US11066414B2, “Cot modulators and methods of use thereof” (Gilead Sciences, Inc., priority 2015, dated 2021)
